# According to patent US8258186B2, “Pharmaceutical for oral delivery comprising MGBG” (Pathologica, LLC, priority 2009, dated 2012):
# Assays:
# [1] = Mouse single-dose pharmacokinetics; format: in vivo, DBA/1 mice; settings: for AUC / Cmax: plasma
# Protocol: Twenty-four male DBA/1 mice weighing 19.5-24.7 g and aged 7-9 weeks administered the test article, MGBG, as either a single bolus intravenous dose via a lateral tail vein of 1 mg/kg (Group 1, n=12) or as a single oral gavage dose of 10 mg/kg (Group 2, n=12). Each dose group consisted of 4 cohorts of 3 animals each. Group 1 was sampled at 5, 15, and 30 minutes after dosing; and 1, 2, 4, 8, and 24 hours after dosing. Group 2 was sampled at 1, 2, 4, 8, 12, 24, and 36 hours after dosing. Starting with the first time point, a new cohort was sampled at each successive time point up to the 1-hour (Group 1) or 12-hour (Group 2) time point. The order of sampling among the cohorts was repeated for the subsequent time points (some cohorts may have been bled only once). The second bleed for each cohort was terminal. Animals were sacrificed via CO2 inhalation anaesthesia after final blood collection.
# The samples were centrifuged under refrigerated conditions following completion of sample collection at each interval. The resulting plasma was separated and stored frozen at approximately −70° C. until analysis. Analysis was performed by LC/MS/MS. Pharmacokinetic analyses were performed on the mean MGBG plasma concentration versus time data using the non-compartmental approach (linear trapezoidal rule for AUC calculations). The WinNonlin sparse sampling tool was used for PK calculations.
# [2] = Multi-species allometric scaling, predicted pharmacokinetic parameters in humans; settings: predicted human, based on Mouse, Dog, Rhesus
# Description: Multi-species allometric scaling based on pharmacokinetic parameters disclosed in Tables 2 and 3 was employed to calculate predicted pharmacokinetic parameters in humans according to methods known in the art. See, e.g., Ings R M, “Interspecies scaling and comparisons in drug development and toxicokinetics,” Xenobiotica, 1990 November; 20(11):1201-31 and Khor, S P et al., “Dihydropyrimidine dehydrogenase inactivation and 5-fluorouracil pharmacokinetics: allometric scaling of animal data, pharmacokinetics and toxicodynamics of 5-fluorouracil in humans,” Cancer Chemother Pharmacol (1997) 39(3): 833-38. Expected values are given below in Tables 6 and 7.
# [3] = Rat single-dose pharmacokinetics; format: in vivo, Sprague Dawley rats
# Protocol: Eighteen male Sprague Dawley rats (Charles River) weighing 217-263 g and aged 8-9 weeks were administered the test article, MGBG as either a single bolus intravenous dose of 1 mg/kg (Group 1) or as a single oral gavage dose of 10 mg/kg. A cohort of three animals was sacrificed via CO2 inhalation anaesthesia after final blood collection at each of T=2, 4, 12, 24, 36, and 48 hours post-dose. Dose formulation analysis verified administered dose solutions as within 17% of targeted concentration of 10 mg/kg.
# Analysis was performed by LC/MS/MS. Pharmacokinetic analyses were performed on the mean MGBG plasma concentration versus time data using the non-compartmental approach (linear trapezoidal rule for AUC calculations). The WinNonlin sparse sampling tool was used for PK calculations. All samples reported as BQL (Below the Limit of Quantitation, in plasma 2.50 ng/mL) were changed to 0.00 ng/mL for the purpose of analysis.
# [4] = Rhesus macaque single-dose pharmacokinetics; format: in vivo, rhesus monkeys
# Protocol: Two groups of three male rhesus monkeys were fasted overnight before being administered the test article, MGBG, as either a single bolus intravenous dose of 1 mg/kg (Group 1) or as a single oral gavage dose of 10 mg/kg (Group 2). Dose formulation analysis verified administered dose solutions as within 14% of targeted concentrations of 1 and 10 mg/kg for Groups 1 and 2, respectively.
# Blood samples were collected into tubes containing lithium heparin from the femoral vein/artery (approximately 1.0 mL) for plasma MGBG concentration measurement from all intravenously dosed animals prior to dosing and at approximately T=0.083 (5 min), 0.25 (15 min), 0.5 (30 min), 1, 2, 4, 8, and 24 hours after dosing. Blood samples for plasma MGBG concentration measurement were collected from all orally dosed animals prior to dosing at approximately T=1, 2, 4, 8, 12, 24, and 36 hours after dosing. Food was also withheld through the first four hours of blood sample collection.
# The samples were centrifuged under refrigerated conditions following completion of sample collection at each interval. The resulting plasma was separated and stored frozen at approximately −70° C. until analysis.
# PK analysis was performed on the individual plasma concentration-time profiles for MGBG using the WinNonlin non-compartmental approach (linear trapezoidal rule for AUC calculations). Nominal dose values and sampling times were used for calculations. All MGBG plasma concentration measurements reported as BQL (<2.51 ng/mL) were set equal to zero for the purpose of analysis. Following IV and PO administration of MGBG, plasma PK disposition parameters were calculated using the WinNonlin default selection criteria for the selection of the Lambda Z.
# Consequently, a model-dependent two-compartmental analysis was used to calculate bioavailability.
# [5] = following IV and PO administration
# [6] = male, DBA/1, plasma, single bolus IV 1 mg/kg, mean
# [7] = male, DBA/1, plasma, single oral gavage 10 mg/kg, mean
# [8] = male, DBA/1, single bolus IV 1 mg/kg, mean
# [9] = male, DBA/1, single oral gavage 10 mg/kg, mean
# [10] = single oral gavage 10 mg/kg, mean
# [11] = male, Sprague Dawley, plasma, single bolus IV 1 mg/kg, mean
# [12] = male, Sprague Dawley, plasma, single oral gavage 10 mg/kg, mean
# [13] = male, Sprague Dawley, single bolus IV 1 mg/kg, plasma, mean
# [14] = male, rhesus monkey, plasma, single bolus IV 1 mg/kg, mean
# [15] = male, rhesus monkey, plasma, single oral gavage 10 mg/kg, mean
# [16] = male, rhesus monkey, single bolus IV 1 mg/kg, plasma, mean
# [17] = male, rhesus monkey, single oral gavage 10 mg/kg, plasma, mean
structure (smiles),measurement,setting,value
"CC(/C=N/NC(=N)N)=N\NC(=N)N [MGBG, 1,1′[methylethanediylidene]dinitrilodiguanidine]",systemic plasma MGBG exposure,[1]; [5],observed at all collected plasma time points
same,clinical findings,[1]; following dosing,Abnormal clinical findings were not noted
same,bioavailability,"[1]; male, DBA/1, plasma, oral 10 mg/kg vs IV 1 mg/kg",44.3%
same,Tmax,[1]; [6],0.083 h
same,half-life,[1]; [6],13 h
same,Tmax,[1]; [7],1 h
same,half-life,[1]; [7],11.8 h
same,AUC,[1]; [8],336 ng·h/mL
same,Cmax,[1]; [8],181 ng/mL
same,AUC,[1]; [9],1420 ng·h/mL
same,Cmax,[1]; [9],106 ng/mL
same,Clobs,"[1]; single bolus IV 1 mg/kg, mean",49.6 mL/min/kg
same,VSSobs,"[1]; single bolus IV 1 mg/kg, mean",38.3 L/kg
same,Clobs,[1]; [10],6.68 mL/min/kg
same,VSS,[2]; IV,9.1 L/kg
same,t1/2,[2]; IV,13.3 h
same,t1/2,"[2]; IV, Rat",13.4 h
same,CL,[2]; ORAL,20.9 mL/min/kg
same,t1/2,[2]; ORAL,23.0 h
same,t1/2,"[2]; ORAL, Rat",23.3 h
same,clinical findings,[3]; following dosing,Abnormal clinical findings were not noted
same,bioavailability,"[3]; male, Sprague Dawley, plasma, oral 10 mg/kg vs IV 1 mg/kg",11.6%
same,Tmax,[3]; [11],0.083 h
same,half-life,[3]; [11],17.4 h
same,Tmax,[3]; [12],4.67 h
same,half-life,[3]; [12],28.1 h
same,AUC,[3]; [13],1250 ng·h/mL
same,Cmax,[3]; [13],684 ng/mL
same,AUC,"[3]; male, Sprague Dawley, single oral gavage 10 mg/kg, AUCall, time zero to last plasma concentration measurement",1280 ng·h/mL
same,Cmax,"[3]; male, Sprague Dawley, single oral gavage 10 mg/kg, plasma, mean",55.8 ng/mL
same,time point through which MGBG levels in plasma were measurable,"[3]; single PO 10 mg/kg, beyond that certain samples BLQ",12 h
same,Clobs,"[3]; single bolus IV 1 mg/kg, mean",13.4 mL/min/kg
same,VSSobs,"[3]; single bolus IV 1 mg/kg, mean",15.4 L/kg
same,Clobs,[3]; [10],3.18 mL/min/kg
same,systemic plasma MGBG exposure,[4]; [5],observed at all collected plasma time points
same,bioavailability,"[4]; male, rhesus monkey, plasma, oral 10 mg/kg vs IV 1 mg/kg, two-compartmental analysis used",35%
same,Tmax,[4]; [14],0.139 h
same,half-life,[4]; [14],30.8 h
same,Tmax,[4]; [15],3.33 h
same,half-life,[4]; [15],24.2 h
same,AUC,[4]; [16],1660 ng·h/mL
same,Cmax,[4]; [16],757 ng/mL
same,AUC,[4]; [17],4240 ng·h/mL
same,Cmax,[4]; [17],192 ng/mL
same,Clobs,"[4]; single bolus IV 1 mg/kg, mean",13.7 mL/min/kg
same,VSSobs,"[4]; single bolus IV 1 mg/kg, mean",13.2 L/kg
same,Clobs,[4]; [10],6.63 mL/min/kg
